Test [1] addresses T1, aldose reductase (Bos taurus, UniProt P16116).
T1 construct: preparation of the enzyme from bovine lens; from tissue; host or cells: bovine lens
Description: in vitro inhibition of aldose reductase (enzyme from bovine lens, modified Hayman and Kinoshita procedure). The test is classed as biochemical. The note with it: read-out: % inhibition in vitro. The text has this: In the present case the procedure of Hayman and Kinoshita was modified in that the final chromatography step was omitted in the preparation of the enzyme from bovine lens.

Test [2] deals with T2, aldose reductase (Rattus norvegicus, UniProt P07943).
T2 construct: diminish the accumulation of dulcitol in the lenses, sciatic nerves and diaphragm of rats fed galactose; from tissue; host or cells: lens, sciatic nerve and diaphragm of living male Sprague-Dawley rats
As to the kind of experiment: lowering of dulcitol accumulation in vivo in lens, sciatic nerve and diaphragm of galactosemic rats. Further details: species or system rat (Sprague-Dawley). The settings on record: for ED50: po, 96 h. The text has this: Such experiments are exemplified hereinbelow after the listing of the following general comments pertaining to these experiments:
(a) Four or more groups of six male rats, 50-70 g, Sprague-Dawley strain, were used. The first group, the control group, was fed a mixture of laboratory chow (rodent Laboratory Chow, Purina) and glucose at 20% (w/w %) concentration. The untreated galactosemic group was fed a similar diet in which galactose is substituted for glucose. The third group was fed a diet prepared by mixing a given amount of the test compound with the galactose containing diet. The concentration of galactose in the diet of the treated groups was the same as that for the untreated galactosemic group.
(b) After four days, the animals were killed by decapitation. The eyeballs were removed and punctured with a razor blade; the freed lenses were rolled gently on filter paper and weighed. The sciatic nerves were dissected as completely as possible and weighed. Both tissues when frozen can be kept up to two weeks before being analyzed for dulcitol.
Only two minor reagent changes were made: (a) The rinsing mixture was an aqueous 5% (w/v) trichloroacetic acid solution and (b) the stock solution was prepared by dissolving 25 mg of dulcitol in 100 ml of an aqueous trichloroacetic acid solution. [N.B.: For each experiment the average value found in the tissue from rats fed the glucose diet was subtracted from the individual values found in the corresponding tissue in galactose-fed rats to obtain the amount of polyol accumulated.]
The figures under L, N and D represent the percentage decrease of dulcitol accumulation in the tissues of the lens, sciatic nerve and diaphragm, respectively, for treated rats as compared to untreated rats.

Setting [3] is: diaphragm, 24 mg/kg/day in diet.
Setting [4] is: rat, diaphragm, read-out: ED50, lowering dulcitol accumulation in vivo, D.
[5] abbreviates: rat, sciatic nerve, read-out: ED50, lowering dulcitol accumulation in vivo, N.
Where [6] appears, read: diaphragm, 23 mg/kg/day in diet.

This note sets out measurements from patent US4743611A, “Naphthalenylsulfonylimidazolidinediones and their thioxo analogs useful as aldose reductase inhibitors” (American Home Products Corp., priority 1987, dated 1988).

Where two headings read alike, the source gives them in different places.

One may read the inhibition as how much of the control response was suppressed. A word on the ED50: it is the dose at which the effect has come halfway, by size or by number of responders. Consider `O=C1CN(S(=O)(=O)c2cccc3c(Br)cccc23)C(=S)N1` [Example 1, 1-[(5-Bromo-1-naphthalenyl)sulfonyl]-2-thioxo-4-imidazolidinone], for which the inhibition at 10 µM on aldose reductase [1] (10^-5) was determined as 67%. Also, on aldose reductase [1] (10^-6), the inhibition at 1 µM is 17%. Besides, the “% lowering dulcitol accumulation in vivo, D” value at aldose reductase [2] (setting [3]) turned out to be 61%; on aldose reductase [2] (diaphragm, 48 mg/kg/day in diet, p < 0.01), 64%; at aldose reductase [2] (diaphragm, 109 mg/kg/day in diet), 86%. The “% lowering dulcitol accumulation in vivo, L” value is on record as 24% on aldose reductase [2] (lens, 24 mg/kg/day in diet); 40% on aldose reductase [2] (lens, 48 mg/kg/day in diet, p < 0.01); 49% on aldose reductase [2] (lens, 109 mg/kg/day in diet). For the same compound, the ED50 turned out to be 18 mg/kg on aldose reductase [2] (setting [4]); 99 mg/kg on aldose reductase [2] (rat, lens, read-out: ED50, lowering dulcitol accumulation in vivo, L); 22 mg/kg on aldose reductase [2] (setting [5]).

In the case of `O=C1CN(S(=O)(=O)c2cccc3c(Br)cccc23)C(=O)N1` [Example 2, 1-[(5-Bromo-1-naphthalenyl)sulfonyl]-2,4-imidazolidinedione], the inhibition at 10 µM on aldose reductase [1] (10^-5) turned out to be 93%. In addition, the inhibition at 1 µM on aldose reductase [1] (10^-6) worked out at 89%. Moreover, on aldose reductase [1] (10^-7), the inhibition at 0.1 µM worked out at 45%. Moreover, on aldose reductase [2] (4.8 and 10.2 mg/kg/day versus tolrestat 4 and 11 mg/kg/day), the “results compared with tolrestat (in words)” value was “comparable results”. Besides, the “% lowering dulcitol accumulation in vivo, D” value is listed as 58% at aldose reductase [2] (diaphragm, 4.8 mg/kg/day in diet); 72% at aldose reductase [2] (diaphragm, 10.2 mg/kg/day in diet); 75% on aldose reductase [2] (diaphragm, 20.7 mg/kg/day in diet); 81% at aldose reductase [2] (setting [6]); 87% on aldose reductase [2] (diaphragm, 101 mg/kg/day in diet). In addition, the “% lowering dulcitol accumulation in vivo, L” value stood at 18% on aldose reductase [2] (lens, 10.2 mg/kg/day in diet); 36% at aldose reductase [2] (lens, 20.7 mg/kg/day in diet); 44% at aldose reductase [2] (lens, 23 mg/kg/day in diet); 79% on aldose reductase [2] (lens, 101 mg/kg/day in diet). Besides, the median effective dose (ED50) was 2 mg/kg at aldose reductase [2] (setting [4]) and 8.1 mg/kg at aldose reductase [2] (setting [5]).

As to `O=C1CN(S(=O)(=O)c2ccc(Br)c3ccccc23)C(=S)N1` [Example 3, 1-[(4-bromo-1-naphthalenyl)sulfonyl]-2-thioxo-4-imidazolidinone], on aldose reductase [1] (10^-5), the inhibition at 10 µM is 53%. The inhibition at 1 µM on aldose reductase [1] (10^-6) amounted to 15%.

On to `O=C1CN(S(=O)(=O)c2ccc(Br)c3ccccc23)C(=O)N1` [Example 4, 1-[(4-bromo-1-naphthalenyl)sulfonyl]-2,4-imidazolidinedione], for which, at aldose reductase [1] (10^-5), the inhibition at 10 µM stood at 92%. Further, the inhibition at 1 µM at aldose reductase [1] (10^-6) was determined as 81%. For the same compound, on aldose reductase [1] (10^-7), the inhibition at 0.1 µM is 31%. The “% lowering dulcitol accumulation in vivo, D” value on aldose reductase [2] (setting [3]) is on record as 27%.

Consider `COc1ccc2c(S(=O)(=O)N3CC(=O)NC3=S)cccc2c1C(F)(F)F` [Example 5, 1-[[6-methoxy-5-(trifluoromethyl)-1-naphthalenyl]sulfonyl]-2-thioxo-4-imidazolidinone], for which the inhibition at 1 µM at aldose reductase [1] (10^-6) was 15%. Moreover, the inhibition at 10 µM on aldose reductase [1] is 40%.

Take `COc1ccc2c(S(=O)(=O)N3CC(=O)NC3=O)cccc2c1C(F)(F)F` [Example 6, 1-[[6-Methoxy-5-(trifluoromethyl)-1-naphthalenyl]sulfonyl]-2,4-imidazolidinedione]: the inhibition at 1 µM on aldose reductase [1] (10^-6) is 84%. For the same compound, on aldose reductase [1] (10^-7), the inhibition at 0.1 µM stood at 43%. Moreover, at aldose reductase [1], the inhibition at 10 µM stood at 86%. Also, the “% lowering dulcitol accumulation in vivo, D” value on aldose reductase [2] (diaphragm, 86 mg/kg/day in diet, p < 0.01) is reported as 87%. The “% lowering dulcitol accumulation in vivo, L” value at aldose reductase [2] (lens, 86 mg/kg/day in diet, p < 0.01) turned out to be 60%.

With `CN(C)c1cccc2c(S(=O)(=O)N3CC(=O)NC3=S)cccc12` [Example 7, 1-[[5-(dimethylamino)-1-naphthalenyl]sulfonyl]-2-thioxo-4-imidazolidinone], at aldose reductase [1] (10^-5), the inhibition at 10 µM worked out at 58%. Further, the inhibition at 1 µM on aldose reductase [1] (10^-6) was found to be 12%.

For the compound `CN(C)c1cccc2c(S(=O)(=O)N3CC(=O)NC3=O)cccc12` [Example 8, 1-[[5-(Dimethylamino)-1-naphthalenyl]sulfonyl]-2,4-imidazolidinedione], the inhibition at 1 µM at aldose reductase [1] (10^-6) stood at 83%. In addition, on aldose reductase [1], the inhibition at 0.1 µM worked out at 38% and the inhibition at 10 µM turned out to be 96%.

`O=C1CN(S(=O)(=O)c2cccc3ccccc23)C(=S)N1` [Example 9, 1-[(1-Naphthalenyl)sulfonyl]-2-thioxo-4-imidazolidinone]: on aldose reductase [1] (10^-5), the inhibition at 10 µM was found to be 17%.

With `O=C1CN(S(=O)(=O)c2cccc3ccccc23)C(=O)N1` [Example 10, 1-[(1-Naphthalenyl)sulfonyl]-2,4-imidazolidinedione], the inhibition at 10 µM on aldose reductase [1] (10^-5) turned out to be 89%. In addition, at aldose reductase [1] (10^-6), the inhibition at 1 µM was 59%. Also, at aldose reductase [1] (10^-7), the inhibition at 0.1 µM came out at 14%. For the same compound, the “% lowering dulcitol accumulation in vivo, D” value on aldose reductase [2] (setting [6]) is recorded as 31%. Further, the “% lowering dulcitol accumulation in vivo, L” value on aldose reductase [2] (lens, 23 mg/kg/day in diet) is 10%.

With `O=C1CN(S(=O)(=O)c2cccc3cc(Br)ccc23)C(=S)N1` [Example 11, 1-[(6-bromo-1-naphthalenyl)sulfonyl]-2-thioxo-4-imidazolidinone], the inhibition at 10 µM on aldose reductase [1] (10^-5) amounted to 10%. Also, the inhibition at 1 µM on aldose reductase [1] (10^-6) worked out at 9%.

Regarding `O=C1CN(S(=O)(=O)c2cccc3cc(Br)ccc23)C(=O)N1` [Example 12, 1-[(6-bromo-1-naphthalenyl)sulfonyl]-2,4-imidazolidinedione], at aldose reductase [1] (10^-5), the inhibition at 10 µM was 89%. The inhibition at 1 µM at aldose reductase [1] (10^-6) turned out to be 70%. The inhibition at 0.1 µM on aldose reductase [1] (10^-7) was 23%. The “% lowering dulcitol accumulation in vivo, D” value on aldose reductase [2] (setting [3]) is recorded as 0%. Also, at aldose reductase [2] (lens, 24 mg/kg/day in diet), the “% lowering dulcitol accumulation in vivo, L” value was determined as 0%.

On to `O=C1CN(S(=O)(=O)c2cccc3ccc(Br)cc23)C(=S)N1` [Example 13, 1-[(7-bromo-1-naphthalenyl)sulfonyl]-2-thioxo-4-imidazolidinone], for which the inhibition at 1 µM on aldose reductase [1] (10^-6) is 16%. For the same compound, at aldose reductase [1], the inhibition at 10 µM came out at 46%.

Consider `O=C1CN(S(=O)(=O)c2cccc3ccc(Br)cc23)C(=O)N1` [Example 14, 1-[(7-bromo-1-naphthalenyl)sulfonyl]-2,4-imidazolidinedione], for which the inhibition at 0.1 µM at aldose reductase [1] (10^-7) is 36%. In addition, at aldose reductase [1], the inhibition at 1 µM worked out at 79% and the inhibition at 10 µM was found to be 93%. On aldose reductase [2] (setting [6]), the “% lowering dulcitol accumulation in vivo, D” value is given as 50%. On aldose reductase [2] (lens, 23 mg/kg/day in diet), the “% lowering dulcitol accumulation in vivo, L” value came to 0%.

Consider `O=C1CN(S(=O)(=O)c2cccc3c(Cl)cccc23)C(=S)N1` [Example 15, 1-[(5-chloro-1-naphthalenyl)sulfonyl]-2-thioxo-4-imidazolidinone], for which, at aldose reductase [1] (10^-5), the inhibition at 10 µM was 43%. Also, on aldose reductase [1] (10^-6), the inhibition at 1 µM came out at 14%.

On to `O=C1CN(S(=O)(=O)c2cccc3c(Cl)cccc23)C(=O)N1` [Example 16, 1-[(5-chloro-1-naphthalenyl)sulfonyl]-2,4-imidazolidinedione], for which, on aldose reductase [1] (10^-5), the inhibition at 10 µM was 85%. In addition, at aldose reductase [1] (10^-7), the inhibition at 0.1 µM worked out at 36%. The inhibition at 1 µM on aldose reductase [1] came to 79%. At aldose reductase [2] (diaphragm, 25 mg/kg/day in diet), the “% lowering dulcitol accumulation in vivo, D” value was 82%. Moreover, at aldose reductase [2] (lens, 25 mg/kg/day in diet), the “% lowering dulcitol accumulation in vivo, L” value stood at 44%.

Take `O=C1CN(S(=O)(=O)c2cccc3c(I)cccc23)C(=S)N1` [Example 17, 1-[(5-iodo-1-naphthalenyl)sulfonyl]-2-thioxo-4-imidazolidinone]: at aldose reductase [1] (10^-5), the inhibition at 10 µM came out at 58%. The inhibition at 1 µM at aldose reductase [1] (10^-6) was found to be 24%. Moreover, on aldose reductase [2] (diaphragm, 26 mg/kg/day in diet), the “% lowering dulcitol accumulation in vivo, D” value is on record as 34.0%. Besides, the “% lowering dulcitol accumulation in vivo, L” value on aldose reductase [2] (lens, 26 mg/kg/day in diet) is recorded as 0.0%.

As to `O=C1CN(S(=O)(=O)c2cccc3c(I)cccc23)C(=O)N1` [Example 18, 1-[(5-iodo-1-naphthalenyl)sulfonyl]-2,4-imidazolidinedione], on aldose reductase [1] (10^-7), the inhibition at 0.1 µM was found to be 59%. The “% lowering dulcitol accumulation in vivo, D” value on aldose reductase [2] (setting [3]) stood at 74.0%. On aldose reductase [2] (lens, 24 mg/kg/day in diet), the “% lowering dulcitol accumulation in vivo, L” value is recorded as 33%.

As to `O=C1CN(S(=O)(=O)c2ccc3c(Br)cccc3c2)C(=S)N1` [Example 19, 1-[(5-Bromo-2-naphthalenyl)sulfonyl]-2-thioxo-4-imidazolidinone], the inhibition at 10 µM at aldose reductase [1] (10^-5) came out at 13%. At aldose reductase [1] (10^-6), the inhibition at 1 µM stood at 9%.

Turning to `O=C1CN(S(=O)(=O)c2ccc3c(Br)cccc3c2)C(=O)N1` [Example 20, 1-[(5-Bromo-2-naphthalenyl)sulfonyl]-2,4-imidazolidinedione], on aldose reductase [1] (10^-5), the inhibition at 10 µM was 89%. In addition, the inhibition at 1 µM on aldose reductase [1] (10^-6) turned out to be 77%. Also, at aldose reductase [1] (10^-7), the inhibition at 0.1 µM is 24%. The “% lowering dulcitol accumulation in vivo, L” value on aldose reductase [2] (lens, 24 mg/kg/day in diet) is “N.S”.

On to `COc1ccc2c(C(=S)N(C)CC(=O)O)cccc2c1C(F)(F)F` [tolrestat, N-[[6-methoxy-5-(trifluoromethyl)-1-naphthalenyl]thioxomethyl]-N-methylglycine, reference compound], for which the “% lowering dulcitol accumulation in vivo, D” value on aldose reductase [2] (rat, in vivo, 11 mg/kg/day) amounted to 89.
